Experimental data as given in patent US8263565B2, “Nanoemulsion comprising metabolites of ginseng saponin as an active component and a method for preparing the same, and a skin-care composition for anti-aging containing the same” (Amorepacific Corporation, priority 2002, dated 2012).

System: Guinea pig's skin
Test: Skin penetration with Frantz cell, HPLC determination
Format: in vitro ADME
Method: Skin penetration was evaluated for Guinea pig's skin with Frantz cell. Before test, abdominal part, a piece of skin as large as 1 cm^2 square was excised. The excised skin was mounted on a Frantz cell with the diameter of 0.9 cm and fixed with clamp. 0.5 ml of test sample (in case of Examples 1˜9 and C. Examples 1˜6, 0.05 ml of sample and distilled water; and in case of Formulations 1˜30 and C. Formulations 1˜15, 0.5 ml of sample only) was placed on one side of skin (donor side). The other side (receiver side) was filled with mixture of distilled water and ethanol (4:1 weight ratio). Test was performed at 32° C., which is skin temperature. Test solvent was sampled at predetermined time intervals from the receiver side, and the amounts of penetrated compound K, ginsenoside F1 and compound Y were determined by HPLC system. The data were indicated in penetrated amount per applied concentration (μg/cm^2/wt %).
In case of purified ginseng saponin, the amount of penetrated saponin was determined. Also, in case of Bio GF1K, the amounts of penetrated compound K, ginsenoside F1 and compound Y were determined and total penetrated amounts were calculated by sum of each peak.
<HPLC Analytic Condition> • Column: C18 (ODS) • Solvent Flow: 1 ml/min • Detection UV: 203 nm • Sample test concentration 5 mg/ml • Sample injection amount: 10 μg • Eluent: Gradient condition • A: Acetonitrile/D.I. water=15/85 • B: Acetonitrile/D.I. water=80/20
<Solvent Gradient Condition>

Row | SMILES | skin penetration (comparison in words)
1 | CC(C)=CCC[C@](C)(O[C@@H]1O[C@H](CO)[C@@H](O)[C@H](O)[C@H]1O)[C@H]1CC[C@]2(C)[C@@H]1[C@H](O)C[C@@H]1[C@@]3(C)CC[C@H](O)C(C)(C)[C@@H]3CC[C@]12C [compound K, 20-O-β-D-glucopyranosyl-20(S)-protopanaxadiol] | superior effects on skin penetration to purified ginseng saponin
2 | CC(C)=CCC[C@](C)(O[C@@H]1O[C@H](CO[C@@H]2OC[C@H](O)[C@H](O)[C@H]2O)[C@@H](O)[C@H](O)[C@H]1O)[C@H]1CC[C@]2(C)[C@@H]1[C@H](O)C[C@@H]1[C@@]3(C)CC[C@H](O)C(C)(C)[C@@H]3CC[C@]12C [compound Y, 20-O-[α-L-arabinopyranosyl(1→6)-β-D-glucopyranosyl]-20(S)-protopanaxadiol] | superior effects on skin penetration to purified ginseng saponin
3 | CC(C)=CCC[C@](C)(O[C@@H]1O[C@H](CO)[C@@H](O)[C@H](O)[C@H]1O)[C@H]1CC[C@]2(C)[C@@H]1[C@H](O)C[C@@H]1[C@@]3(C)CC[C@H](O)C(C)(C)[C@@H]3[C@@H](O)C[C@]12C [ginsenoside F1, 20-O-β-D-glucopyranosyl-20(S)-protopanaxatriol] | superior effects on skin penetration to purified ginseng saponin
